Data as given in patent US20030138394A1, “Cosmetic and/or pharmaceutical preparations that contain an extract of the plant argania spinosa” (priority 2000, published 2003).

Test system: human adipocytes
Assay: Lipolysis activity on human adipocytes (released glycerol)
Type: cell-based
Conditions: 30 mM; 90 minutes at 37° C.; reference medium = 0
Procedure: Method: The adipocytes were isolated from human subcutaneous tissue, as corresponds to the general technique in accordance with Rodbell. The extract as in
Example 1 or the comparison substances are dissolved in the reference medium and then brought into contact with the isolated adipocytes for 90 minutes at 37° C. In each case one adipocyte preparations [sic] was analyzed. The percentage increase in released glycerol in the supernatant of the medium was determined by means of spectrophotometry in accordance with the method by Carpéné et al. The reference administered was the medium without substance to be analyzed and was set equal to 0.

With `Cn1c(=O)c2c(ncn2C)n(C)c1=O` [Caffeine] the “% increase in released glycerol” value was 181%.
